{"source": "patent US20060094682A1", "about": "“Kinase inhibitors for the treatment of diabetes and obesity” (Odyssey Thera, Inc., priority 2004, published 2006)", "key": {"[1]": {"target": "Hck (Homo sapiens, UniProt P08631)", "sequence (P08631 whole entry, species assumed)": "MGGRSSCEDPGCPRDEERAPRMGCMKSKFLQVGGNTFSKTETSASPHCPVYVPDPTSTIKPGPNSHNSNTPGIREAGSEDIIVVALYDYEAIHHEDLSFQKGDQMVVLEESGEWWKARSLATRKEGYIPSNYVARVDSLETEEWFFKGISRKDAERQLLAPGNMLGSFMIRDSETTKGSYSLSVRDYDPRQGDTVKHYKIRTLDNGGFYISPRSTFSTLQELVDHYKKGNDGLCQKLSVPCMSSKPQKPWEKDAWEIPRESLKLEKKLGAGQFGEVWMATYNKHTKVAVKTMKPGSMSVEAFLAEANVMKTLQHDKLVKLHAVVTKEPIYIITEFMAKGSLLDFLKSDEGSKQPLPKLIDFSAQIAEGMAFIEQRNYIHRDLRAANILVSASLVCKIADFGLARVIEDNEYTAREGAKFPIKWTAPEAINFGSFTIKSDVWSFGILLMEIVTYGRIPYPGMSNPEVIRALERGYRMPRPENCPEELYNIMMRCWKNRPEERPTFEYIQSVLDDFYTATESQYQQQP", "details": "cited from earlier work"}, "[2]": {"tested_on": "human T cells", "details": "read-out: IC50 anti-CD3-stimulated tyrosine phosphorylation of human T cells; cited from earlier work"}, "[3]": {"tested_on": "PPAR-[Gamma]:SRC-1 complexes", "assay": "PPAR-[Gamma]:SRC-1 fluorescence protein-fragment complementation assay (PCA), drug treatment", "type": "cell-based, human", "details": "HEK293 cells; for effect on PPAR-[Gamma]:SRC-1 complex: 10 micromolar PP3 or 1 micromolar PD 153035 for 6.5 hours prior to rosiglitazone for 1.5 hours", "description": "Reporter fragments for PCA were generated by oligonucleotide synthesis (Blue Heron Biotechnology, Bothell, Wash.). First, oligonucleotides coding for polypeptide fragments YFP[1]and YFP[2] […] Next, PCR mutagenesis was used to generate the mutant fragments IFP[1] and IFP[2]. […] The YFP[1], YFP[2], IFP[1] and IFP[2] fragments were amplified by PCR to incorporate restriction sites and a linker sequence, described below, in configurations that would allow fusion of a gene of interest to either the 5′- or 3′-end of each reporter fragment. […] Additionally, these vectors still retain the SV40 origin, allowing for episomal expression in cell lines expressing the SV40 large T antigen (e.g. HEK293T, Jurkat or COS).\nRecombinants in the host strains DH5-alpha (Invitrogen, Carlsbad, Calif.) or XL1 Blue MR (Stratagene, La Jolla, Calif.) were screened by colony PCR, and clones containing inserts of the correct size were subjected to end sequencing to confirm the presence of the gene of interest and in-frame fusion to the appropriate reporter fragment. A subset of fusion constructs were selected for full-insert sequencing by primer walking. DNAs were isolated using Qiagen MaxiPrep kits (Qiagen, Chatsworth, Calif.). PCR was used to assess the integrity of each fusion construct, by combining the appropriate gene-specific primer with a reporter-specific primer to confirm that the correct gene-fusion was present and of the correct size with no internal deletions.\nHEK293 cells were maintained in MEM alpha medium (Invitrogen) supplemented with 10% FBS (Gemini Bio-Products), 1% penicillin, and 1% streptomycin, and grown in a 37° C. incubator equilibrated to 5% CO2."}, "[4]": {"tested_on": "Src family kinases", "details": "cited from earlier work"}}, "data": [{"compound": "4-amino-5-(4-chlorophenyl)-7-(t-butyl)pyrazolo[3,4-d]pyrimidine [PP2]", "values": [{"measurement": "IC50", "setting": "[1]", "result": 5, "unit": "nM"}, {"measurement": "IC50", "setting": "[2]", "result": 600, "unit": "nM"}]}, {"compound": "CN(CCOc1ccc(CC2SC(=O)NC2=O)cc1)c1ccccn1", "note": "(stereo not drawn) [rosiglitazone]", "values": [{"measurement": "increase of fluorescence intensity of the PPAR-[Gamma]:SRC-1 PCA", "setting": "[3]; 15 micromolar rosiglitazone for 90 minutes vs unstimulated", "result": 6, "unit": "fold"}]}, {"compound": "COc1cc2ncnc(Nc3cccc(Br)c3)c2cc1OC", "note": "[PD153035, 4-[(3-Bromophenyl)amino]-6,7-dimethoxyquinazoline]", "values": [{"measurement": "effect on PPAR-[Gamma]:SRC-1 complex", "setting": "[3]", "result": "no effect"}]}, {"compound": "Nc1ncnc2c1cnn2-c1ccccc1", "note": "[PP3, 4-Amino-7-phenylpyrazol[3,4-d]pyrimidine]", "values": [{"measurement": "effect on PPAR-[Gamma]:SRC-1 complex", "setting": "[3]", "result": "no effect"}, {"measurement": "activity against Src family kinases", "setting": "[4]", "result": "inactive"}]}]}
